Reference: patent publication US5169844A, “4-substituted piperidinecarboxylic acid esters: inhibition of cholesterol absorption” (priority 1991, dated 1992)
Read-outs that look alike come from different tables or passages of the source.

Legend:
[1] = biological target: T1, cholesterol esterase (EC 3.1.1.13) from bovine pancreas (CEH) (Bos taurus, UniProt P30122); experiment: CEH inhibition (cholesteryl ester formation from cholesterol and oleic acid by buffered cholesterol esterase); format: biochemical
T1 construct: purchased Sigma Company, St. Louis, Mo., U.S.A. C-1892; host or cells: bovine pancreas
T1 sequence (P30122 19-597): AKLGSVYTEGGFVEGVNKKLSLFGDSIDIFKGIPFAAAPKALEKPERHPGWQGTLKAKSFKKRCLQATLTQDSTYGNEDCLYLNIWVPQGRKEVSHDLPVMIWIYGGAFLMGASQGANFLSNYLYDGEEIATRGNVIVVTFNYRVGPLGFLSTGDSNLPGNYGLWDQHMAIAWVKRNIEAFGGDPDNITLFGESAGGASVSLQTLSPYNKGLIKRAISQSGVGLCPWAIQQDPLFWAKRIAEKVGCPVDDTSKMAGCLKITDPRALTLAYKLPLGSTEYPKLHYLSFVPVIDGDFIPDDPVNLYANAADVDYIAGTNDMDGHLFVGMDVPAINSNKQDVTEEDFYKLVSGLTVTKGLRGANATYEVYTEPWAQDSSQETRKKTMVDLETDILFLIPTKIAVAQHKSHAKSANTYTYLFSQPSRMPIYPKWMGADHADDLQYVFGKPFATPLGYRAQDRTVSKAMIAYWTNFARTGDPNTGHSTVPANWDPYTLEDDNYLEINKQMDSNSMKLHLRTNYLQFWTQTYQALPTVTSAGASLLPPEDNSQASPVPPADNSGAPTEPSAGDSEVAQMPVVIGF
Method: 2. The ability of the compounds of this invention to inhibit the formation of cholesteryl esters and thereby interfere with and prevent assimilation of cholesterol into the lymphatic system and ultimately the blood stream was established by incubating the compounds at 37° C. with a mixture of cholesterol and oleic acid in the presence of buffered cholesterol esterase [(EC 3.1.1.13) Sigma Company, St. Louis, Mo., U.S.A., No. C-1892, from bovine pancreas] and measuring the amount of ester formed, according to the procedure of Field, J. of Lipid Research, 25 389 (1984).

[2] = system: acyl-coenzyme A: cholesterol acyltransferase (ACAT); experiment: ACAT inhibition (intracellular cholesterol esterification, procedure of Ross et al.); format: cell-based; conditions: for IC50: read-out: ACAT IC50
Text: 1. The ability of the compounds of this invention to inhibit acyl-coenzyme A: cholesterol acyltransferase was established by initially showing that they inhibited intracellular cholesterol esterification by subjecting them to the standard experimental test procedure of Ross et al., J. Biol. Chem. 259, 815 (1984).

[3] = system: Absorption of 14C-cholesterol in normal rat; experiment: In vivo cholesterol absorption, oral [4-14C] cholesterol, normal rats; conditions: read-out: Effect on Absorption of 14C-Chol., % Decrease
Method: The in vivo cholesterol absorption studies were conducted in normal rats by oral administration of the compound being tested in propylene glycol and olive oil followed by oral administration of [4-^14 C] cholesterol in propylene glycol and olive oil, otherwise following the procedure of Cayen et al., J. Lipid Res. 20 162 (1979). The serum radioactivity was measured at six hours after dosing. The results of this study are reported in the following table, where available, as percent decrease compared to control and in terms of the effective dose (ED50) inhibiting fifty-percent of the absorption of the control animals.

[4] = 37° C., bovine pancreas enzyme, read-out: CEH IC50
[5] = normal rat, oral, 6 hr, 10 mg/kg, serum radioactivity vs control
[6] = normal rat, oral, 6 hr, serum radioactivity vs control

| SMILES | ACAT % inhibition at 25 μM [2] [%] | IC50 [2] [µM] | IC50 [1, 4] [µM] | inhibition in vivo at 10 mg/kg [3, 5] [%] | also measured |
| --- | --- | --- | --- | --- | --- |
| CCCCNC(=O)OC1CCN(C(=O)Oc2ccc(Oc3ccccc3)cc2)CC1 [Example 2, 4-[[(Butylamino)carbonyl]oxy]-1-piperidinecarboxylic acid 4-phenoxyphenyl ester] | 96 | 2 |  |  | IC50 [1]: 2.3 µM |
| CCCCCCNC(=O)OC1CCN(C(=O)Oc2ccc(Oc3ccccc3)cc2)CC1 [Example 3, 4-[[(Hexylamino)carbonyl]oxy]-1-piperidinecarboxylic acid 4-phenoxyphenyl ester] | 94 | 0.64 |  |  | IC50 [1]: 9.8 µM; inhibition in vivo at 10 mg/kg ([3]; Rattus norvegicus, po, 6 h): 85% |
| CCCCCCCCNC(=O)OC1CCN(C(=O)Oc2ccc(Oc3ccccc3)cc2)CC1 [Example 4, 4-[[(Octylamino)carbonyl]oxy]-1-piperidinecarboxylic acid 4-phenoxyphenyl ester] | 94 | 0.82 | > 100 |  | inhibition in vivo at 100 mg/kg ([3]; normal rat, oral, 6 hr, 100 mg/kg, serum radioactivity vs control): 92% |
| O=C(NC1CCCCC1)OC1CCN(C(=O)Oc2ccc(Oc3ccccc3)cc2)CC1 [Example 5, 4-[[(Cyclohexylamino)carbonyl]oxy]-1-piperidinecarboxylic acid 4-phenoxyphenyl ester] | 92 | 1.68 | 9.5 | 89 |  |
| CCCCCCCCCCCCNC(=O)OC1CCN(C(=O)Oc2ccc(Oc3ccccc3)cc2)CC1 [Example 6, 4-[[(Dodecylamino)carbonyl]oxy]-1-piperidinecarboxylic acid 4-phenoxyphenylester] | 88 | 0.51 | 16 | 57 |  |
| CCCCCCCCCCCCCCCCCCNC(=O)OC1CCN(C(=O)Oc2ccc(Oc3ccccc3)cc2)CC1 [Example 7, 4-[[(Octadecylamino)carbonyl]oxy]-1-piperidinecarboxylic acid 4-phenoxyphenyl ester] |  |  | > 100 |  | inhibition in vivo at 25 mg/kg [3, 6]: 28% |
| CC(C)CCCC(C)NC(=O)OC1CCN(C(=O)Oc2ccc(Oc3ccccc3)cc2)CC1 (stereo not shown) [Example 8, 4-[[[(1,5-Dimethylhexyl)amino]carbonyl]oxy]-1-piperidinecarboxylic acid 4-phenoxyphenyl ester] |  |  | 13 |  |  |
| CC1CCN(C(=O)OC2CCN(C(=O)Oc3ccc(Oc4ccccc4)cc3)CC2)CC1 [Example 9] |  |  | 1.1 |  |  |
| CCCCCCCN(Cc1ccc(CC(C)(C)C)cc1)C(=O)OC1CCN(C(=O)Oc2ccc(Oc3ccccc3)cc2)CC1 [Example 10, 4-[[[[[4-(2,2-Dimethylpropyl)phenyl]methyl]heptylamino]carbonyl]oxy]-1-piperidinecarboxylic acid 4-phenoxyphenyl ester] | 84 | 3.3 | > 100 |  |  |
| CNC(=O)OC1CCN(C(=O)Oc2ccc(Oc3ccccc3)cc2)CC1 [Example 11, 4-[[(Methylamino)carbonyl]oxy]-1-piperidinecarboxylic acid 4-phenoxyphenyl ester] |  |  |  |  | IC50 [1]: 2.1 µM |
| CCN(CC)C(=O)OC1CCN(C(=O)Oc2ccc(Oc3ccccc3)cc2)CC1 [Example 12, 4-[[(Diethylamino)carbonyl]oxy]-1-piperidinecarboxylic acid 4-phenoxyphenylester] | 93 | 1.37 |  |  | IC50 [1]: 11.4 µM |
| O=C(NCCCCc1ccccc1)OC1CCN(C(=O)Oc2ccc(Oc3ccccc3)cc2)CC1 [Example 13, 4-[[[(4-Phenylbutyl)amino]carbonyl]oxy]-1-piperidinecarboxylic acid 4-phenoxyphenyl ester] | 96 | 0.23 | 5 | 41 |  |
| CCCCCCCC/C=C\CCCCCCCCNC(=O)OC1CCN(C(=O)Oc2ccc(Oc3ccccc3)cc2)CC1 [Example 14] |  |  | 43 |  | inhibition in vivo at 25 mg/kg [3, 6]: 21% |
| O=C(Oc1ccc(Oc2ccccc2)cc1)N1CCC(OC(=O)N2CCSCC2)CC1 [Example 15, 4-Thiomorpholinecarboxylic acid 1-[(4-phenxoyphenoxy)carbonyl]-4-piperidinyl ester] |  |  | 79 |  |  |
| O=C(Oc1ccc(Oc2ccccc2)cc1)N1CCC(OC(=O)N2CCC(c3ccccc3)CC2)CC1 [Example 16, 4-Phenyl-1-piperidinecarboxylic acid 1-[(4-phenoxyphenoxy)carbonyl]-4-piperidinyl ester] | 91 | 0.51 | 12 | 48 |  |
| O=C(NCC1CCCCC1)OC1CCN(C(=O)Oc2ccc(Oc3ccccc3)cc2)CC1 [Example 17, 4-[[[(Cyclohexylmethyl)amino]carbonyl]oxy]-1-piperidinecarboxylic acid 4-phenoxyphenyl ester] | 97 | 0.49 | 19 |  | inhibition in vivo at 3 mg/kg ([3]; normal rat, oral, 6 hr, 3 mg/kg, serum radioactivity vs control): 68% |
| CCCCCCNC(=O)OC1CCN(C(=O)Oc2ccc(Oc3ccc(C)cc3)cc2)CC1 [Example 18, 4-[[(Hexylamino)carbonyl]oxy]-1-piperidinecarboxylic acid 4-(4-methylphenoxy)phenyl ester] |  |  | 2 | 25 |  |
| CCCCCCNC(=O)OC1CCN(C(=O)Oc2ccc(Oc3ccc(OC)cc3)cc2)CC1 [Example 19, 4-[[(Hexylamino)carbonyl]oxy]-1-piperidinecarboxylic acid 4-(4-methoxyphenoxy)phenyl ester] |  |  | 2.8 | 29 |  |
